Experimental data: patent EP3818828A1 (priority 2019, dated 2021)
≈ marks a conversion by molar mass, not a printed value. Like-named read-outs stand apart in the source and are kept apart here.

Columns and labels:
Type in all cases: cell-based
[1] = system: F. graminearum; assay: microbe, parasite or virus in culture
[2] = system: Phytophthora capsici; assay: Ex vivo mycelial growth inhibition, growth rate method; details: Phytophthora capsici; 1 mg/mL
How it was run: (§1)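 Compounds in DMSO at 5–7 graded concentrations were incorporated into PDA plates, with DMSO solvent control, in triplicate. 4 mm mycelial plugs were incubated at 22±1.5°C for 7 days (10–20 days for some fungi). Colony diameter by cross method gave % inhibition relative to control.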

[3] = system: Exserohilum turcicum; assay: as above; details: 1 mg/mL
How it was run: as §1

[4] = system: Gaeumannomyces graminis var. graminis and G. graminis var. tritici; assay: as above; details: 1 mg/mL
How it was run: as §1

[5] = system: Mycosphaerlla melonis; assay: as above; details: 1 mg/mL
How it was run: as §1

[6] = system: Pythium aphanidermatum; assay: as above; details: 1 mg/mL
How it was run: as §1

[7] = system: Coniella diplodiella; assay: as above; details: 1 mg/mL
How it was run: as §1

[8] = system: F. oxysporum f. sp. vasinfectum; assay: as above; details: 1 mg/mL
How it was run: as §1

[9] = system: Botryosphaeria berengeriana; assay: as above; details: 1 mg/mL
How it was run: as §1

[10] = system: Sclerotinia sclerotiorum; assay: as above; details: 1 mg/mL
How it was run: as §1

[11] = system: Botrytis cinerea; assay: as above; details: 1 mg/mL
How it was run: as §1

[12] = system: C. gossypii; assay: as above; details: 1 mg/mL
How it was run: as §1

[13] = system: Botryosphaeriana berengeriana; assay: as above; details: 1 mg/mL
How it was run: as §1

[14] = system: Thanatephorus cucumeris; assay: as above; details: 1 mg/mL
How it was run: as §1

[15] = system: F. verticillioide; assay: as above; details: 1 mg/mL
How it was run: as §1

[16] = system: Rhizoctonia solani; assay: as above; details: Rhizoctonia solani; 1 mg/mL
How it was run: as §1

[17] = system: F. oxysporum f. sp. lini; assay: as above; details: 1 mg/mL
How it was run: as §1

[18] = system: Valsa mali; assay: as above; details: 1 mg/mL
How it was run: as §1

[19] = system: Colletotrichum capsici; assay: as above; details: 1 mg/mL
How it was run: as §1

[20] = system: Phytophthora infestans; assay: microbe, parasite or virus in culture
[21] = system: Phytophthora infestans; details: Phytophthora infestas; 1 mg/mL
[22] = system: Fusarium graminearum; assay: microbe, parasite or virus in culture
[23] = system: Magnaporthe grisea; assay: microbe, parasite or virus in culture
[24] = system: F. graminearum; assay: microbe, parasite or virus in culture; remark: listed apart in the source
[25] = system: Fusarium graminearum; assay: microbe, parasite or virus in culture; remark: listed apart in the source
[26] = system: Pyricularia grisea; assay: microbe, parasite or virus in culture
[27] = system: Phytophthora infestans; assay: microbe, parasite or virus in culture; details: 1 mg/mL
[28] = system: Exserohilum turcicum; assay: Toxicity determination (EC50) on mycelial growth, growth rate method
Method: (§2) The inhibition of samples for testing on the mycelial growth of plant pathogenic fungi for testing is determined with a growth rate method. 3-(3',4'-methylenedioxy phenyl)-N-n-propyl acrylamide, 3-(3',4'-methylenedioxy phenyl)-piperidine acrylate and five control agents are dissolved with dimethyl sulfoxide (DMSO), then formulated at 5-7 concentrations of different gradients for test following the trial test results, with the same concentration of DMSO as the control solvent, each treatment in triplicate. Fungal cakes with a diameter of 4 mm are taken from the edge of the colony, inoculated into the center of a PDA plate containing different agents of different concentrations and the DMSO control, with one piece of fungal cake inoculated in each plate (with a diameter of […]), and incubated in a constant temperature incubator at a temperature of 22±1.5°C. 7 days later (10-20 days may be needed for some pathogenic fungi), the diameter of the colony is measured with a cross over method according to the mycelial growth profile of the control pathogenic fungi, then the inhibition rate of mycelial growth is calculated.
(§3) 3-(3',4'-methylenedioxy phenyl)-piperidine acrylate, the control agents 96.5% of chlorothalonil technical and 97.0% of procymidone technical. Agents for testing and the control agents chlorothalonil and procymidone are treated at 5-8 concentrations of different gradients on the basis of preliminary tests to ensure that the inhibition rates for treatments at all the concentrations are between 10% and 90%.
(§4) For specific determination methods, with reference to Embodiment 1. The concentration of active ingredients in the culture medium is used as the testing concentration to calculate the toxic regression equation (Y=bx+a) and the median inhibition concentration EC50, 95% confidence limit, and relative toxicity. Relative toxicity (compared to chlorothalonil) = EC50 of chlorothalonil / EC50 of 3-(3',4'-methylenedioxy phenyl)-piperidine acrylate, and relative toxicity (compared to procymidone) = EC50 of procymidone / EC50 of 3-(3',4'-methylenedioxy phenyl)-piperidine acrylate.

[29] = system: Sclerotinia sclerotiorum; assay: as above
Method: as §2, §3, §4

[30] = system: Botrytis cinerea; assay: as above
Method: as §2, §3, §4

[31] = system: Valsa mali; assay: as above
Method: as §2, §3, §4

[32] = system: Colletotrichum capsici; assay: as above
Method: as §2, §3, §4

[33] = EC50 of chlorothalonil / EC50 of agent
[34] = EC50 of procymidone / EC50 of agent
[35] = median inhibition concentration

CC12CC1(C)C(=O)N(c1cc(Cl)cc(Cl)c1)C2=O (centres unmarked) [Procymidone, procymidone]
Relative Toxicity (Compared to Chlorothalonil) [1, 33]: 0.27
Relative Toxicity (Compared to Procymidone) [1, 34]: 1.00
EC50 ([1]; Fusarium graminearum, median inhibition concentration): 850 µg/mL (≈ 2990 µM)
Average Diameter of the Colony [2]: 5.10 cm
inhibition at 1000 µg/mL [2]: 3.77%
Average Diameter of the Colony [3]: 0.24 cm
inhibition at 1000 µg/mL [3]: 96.1%
Average Diameter of the Colony [4]: 2.16 cm
inhibition at 1000 µg/mL [4]: 69.8%
Average Diameter of the Colony [5]: 0.24 cm
inhibition at 1000 µg/mL [5]: 97.2%
Average Diameter of the Colony [6]: 6.20 cm
inhibition at 1000 µg/mL [6]: 7.46%
Average Diameter of the Colony [7]: 0.06 cm
inhibition at 1000 µg/mL [7]: 99.1%
Average Diameter of the Colony [8]: 2.57 cm
inhibition at 1000 µg/mL ([8]; Fusarium oxysporum): 64.5%
Average Diameter of the Colony [9]: 0.15 cm
inhibition at 1000 µg/mL [9]: 97.8%
Average Diameter of the Colony [10]: 0.00 cm
inhibition at 1000 µg/mL [10]: 100%
Average Diameter of the Colony [11]: 1.74 cm
inhibition at 1000 µg/mL [11]: 76.8%
Average Diameter of the Colony ([12]; C. gossypii): 1.62 cm
inhibition at 1000 µg/mL ([12]; Colletotrichum gossypii, C. cossypii, read-out: Inhibition Rate): 70%
Average Diameter of the Colony [13]: 0.20 cm
inhibition at 1000 µg/mL [13]: 96.5%
Average Diameter of the Colony [14]: 0.54 cm
inhibition at 1000 µg/mL [14]: 93.7%
Average Diameter of the Colony [15]: 2.57 cm
inhibition at 1000 µg/mL [15]: 24%
Average Diameter of the Colony [16]: 0.00 cm
inhibition at 1000 µg/mL [16]: 100%
Average Diameter of the Colony [17]: 6.33 cm
inhibition at 1000 µg/mL ([17]; Fusarium oxysporum): 29.7%
Average Diameter of the Colony [18]: 0.83 cm
inhibition at 1000 µg/mL ([18]; Cytospora mali): 89%
Average Diameter of the Colony [19]: 1.19 cm
inhibition at 1000 µg/mL ([19]; Colletotrichum truncatum): 82.5%
Relative Toxicity (Compared to Chlorothalonil) [20, 33]: 0.15
Relative Toxicity (Compared to Procymidone) [20, 34]: 1.00
EC50 [20, 35]: 778 µg/mL (≈ 2740 µM)
Average Diameter of the Colony [21]: 0.80 cm
Average Diameter of the Colony ([22]; 1 mg/mL): 2.26 cm
inhibition at 1000 µg/mL ([22]; read-out: Inhibition Rate): 57.7%
Relative Toxicity (Compared to Chlorothalonil) [23, 33]: 1.42
Relative Toxicity (Compared to Procymidone) [23, 34]: 1.00
EC50 ([23]; Pyricularia oryzae, median inhibition concentration): 308 µg/mL (≈ 1080 µM)
Average Diameter of the Colony ([24]; F. graminearum, 1 mg/mL): 3.57 cm
inhibition at 1000 µg/mL ([24]; Fusarium graminearum, read-out: Inhibition Rate): 58.5%
Relative Toxicity (Compared to Chlorothalonil) [25, 33]: 3.27
Relative Toxicity (Compared to Procymidone) [25, 34]: 1.00
EC50 [25, 35]: 144 µg/mL (≈ 505 µM)
Average Diameter of the Colony ([26]; 1 mg/mL): 4.63 cm
inhibition at 1000 µg/mL ([26]; read-out: Inhibition Rate): 48.6%
Average Diameter of the Colony [27]: 0.00 cm
Relative Toxicity (Compared to Chlorothalonil) [28, 33]: 3.92
Relative Toxicity (Compared to Procymidone) [28, 34]: 1.00
EC50 ([28]; median inhibition concentration, read-out: EC50): 105 µg/mL (≈ 369 µM)
Relative Toxicity (Compared to Chlorothalonil) [29, 33]: 0.89
Relative Toxicity (Compared to Procymidone) [29, 34]: 1.00
EC50 [29, 35]: 70.6 µg/mL (≈ 248 µM)
Relative Toxicity (Compared to Chlorothalonil) [30, 33]: 2.24
Relative Toxicity (Compared to Procymidone) [30, 34]: 1.00
EC50 [30, 35]: 78.9 µg/mL (≈ 278 µM)
Relative Toxicity (Compared to Chlorothalonil) [31, 33]: 0.98
Relative Toxicity (Compared to Procymidone) [31, 34]: 1.00
EC50 [31, 35]: 427.3 µg/mL (≈ 1500 µM)
EC50 ([32]; Colletotrichum truncatum, median inhibition concentration, read-out: EC50): 518 µg/mL (≈ 1820 µM)
Relative Toxicity (Compared to Chlorothalonil) [32, 33]: 0.78
Relative Toxicity (Compared to Procymidone) [32, 34]: 1.00
